# Measurements published in US20140004243A1, “SALTY TASTE ENHANCER” (AJINOMOTO CO., INC., priority 2011, published 2014).
# Target: T1, Human ENaC δ, β and γ subunit (Homo sapiens, UniProt P51168+P51170+P51172)
# T1 construct: expressed in transfected cells; host or cells: Xenopus laevis (African clawed frog) oocytes injected with cRNA
# T1 sequence (P51172 1-802): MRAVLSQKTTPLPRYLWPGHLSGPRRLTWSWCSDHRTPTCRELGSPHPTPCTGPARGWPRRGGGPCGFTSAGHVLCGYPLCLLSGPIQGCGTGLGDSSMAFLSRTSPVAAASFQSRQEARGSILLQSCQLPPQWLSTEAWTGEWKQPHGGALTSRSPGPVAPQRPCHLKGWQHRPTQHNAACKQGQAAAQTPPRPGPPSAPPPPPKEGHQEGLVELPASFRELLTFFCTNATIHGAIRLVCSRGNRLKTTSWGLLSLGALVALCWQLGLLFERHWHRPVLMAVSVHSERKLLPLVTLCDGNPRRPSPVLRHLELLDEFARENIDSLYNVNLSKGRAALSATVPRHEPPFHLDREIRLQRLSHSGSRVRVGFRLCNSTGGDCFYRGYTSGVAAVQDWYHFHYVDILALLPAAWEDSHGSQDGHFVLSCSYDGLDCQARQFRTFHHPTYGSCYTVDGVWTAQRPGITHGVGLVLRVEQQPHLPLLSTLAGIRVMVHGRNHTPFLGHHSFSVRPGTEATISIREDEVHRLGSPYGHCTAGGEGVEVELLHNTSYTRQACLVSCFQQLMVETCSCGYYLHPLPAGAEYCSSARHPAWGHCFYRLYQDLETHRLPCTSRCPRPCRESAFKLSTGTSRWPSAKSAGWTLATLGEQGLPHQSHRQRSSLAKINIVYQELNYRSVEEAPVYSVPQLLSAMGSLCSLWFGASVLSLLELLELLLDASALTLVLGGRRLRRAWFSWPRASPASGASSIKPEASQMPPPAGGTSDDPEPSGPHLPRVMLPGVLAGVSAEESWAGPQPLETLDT
# T1 sequence (P51168 1-640): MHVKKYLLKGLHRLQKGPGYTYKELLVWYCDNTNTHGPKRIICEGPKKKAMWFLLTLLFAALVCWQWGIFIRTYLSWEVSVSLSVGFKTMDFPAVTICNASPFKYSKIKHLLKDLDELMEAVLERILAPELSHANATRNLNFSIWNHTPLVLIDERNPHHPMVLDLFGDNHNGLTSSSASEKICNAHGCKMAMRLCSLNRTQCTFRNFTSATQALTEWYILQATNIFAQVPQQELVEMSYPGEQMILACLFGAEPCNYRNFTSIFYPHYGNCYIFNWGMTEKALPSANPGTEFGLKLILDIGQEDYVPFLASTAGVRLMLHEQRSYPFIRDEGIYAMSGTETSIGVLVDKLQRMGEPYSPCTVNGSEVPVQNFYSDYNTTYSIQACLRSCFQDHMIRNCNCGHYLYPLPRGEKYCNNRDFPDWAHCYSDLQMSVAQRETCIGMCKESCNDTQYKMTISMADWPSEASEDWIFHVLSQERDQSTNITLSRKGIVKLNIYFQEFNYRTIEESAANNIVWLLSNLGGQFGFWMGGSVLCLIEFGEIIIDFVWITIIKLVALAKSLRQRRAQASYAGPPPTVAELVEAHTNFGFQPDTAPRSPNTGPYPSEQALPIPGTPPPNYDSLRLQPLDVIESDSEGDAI
# T1 sequence (P51170 1-649): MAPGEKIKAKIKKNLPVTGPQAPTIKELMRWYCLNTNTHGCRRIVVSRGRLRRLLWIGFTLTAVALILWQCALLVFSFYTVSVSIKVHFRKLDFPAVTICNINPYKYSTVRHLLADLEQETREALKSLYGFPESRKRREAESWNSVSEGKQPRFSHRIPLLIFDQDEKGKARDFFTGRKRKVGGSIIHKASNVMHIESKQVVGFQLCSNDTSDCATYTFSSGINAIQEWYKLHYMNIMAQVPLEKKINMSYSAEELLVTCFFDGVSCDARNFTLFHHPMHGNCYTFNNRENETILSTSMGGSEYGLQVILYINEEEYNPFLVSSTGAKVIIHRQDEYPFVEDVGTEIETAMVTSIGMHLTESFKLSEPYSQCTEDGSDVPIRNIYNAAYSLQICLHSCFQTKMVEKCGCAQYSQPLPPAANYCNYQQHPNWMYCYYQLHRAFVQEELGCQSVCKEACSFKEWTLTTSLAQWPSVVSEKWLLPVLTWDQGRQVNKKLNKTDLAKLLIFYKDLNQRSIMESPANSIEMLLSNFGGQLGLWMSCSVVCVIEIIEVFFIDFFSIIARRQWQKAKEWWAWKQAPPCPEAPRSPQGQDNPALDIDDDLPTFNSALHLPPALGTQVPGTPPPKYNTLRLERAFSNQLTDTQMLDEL
# Test: Measurement of ENaC activation potency (MED) in ENaC-expressing oocyte, Two Electrode Voltage Clamp
# Type: cell-based
# Conditions: minimum effective dose at which current started to increase; ENaC-expressing African clawed frog oocyte; smaller MED = higher ENaC activation potency
# Method in brief: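 Xenopus oocytes injected with human ENaC δ, β and γ cRNA, cultured 16–72 hr, voltage-clamped 30 mV below resting potential in ND96 (pH 7.6) by two-electrode voltage clamp. Compounds (0.1 nM–300 μM) perfused at rising concentrations every 3 min. MED = lowest dose raising current ≥10%, or raising 5 μM capsazepine-evoked current ≥25%, whichever smaller.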
row,MED [µM],SMILES
1,0.06 to 0.1,"C[C@@H](NC(=S)NCCc1ccccc1C(=O)O)c1cccc(O)c1 [Example 125, 2-(2-{3-[(R)-1-(3-hydroxyphenyl)ethyl]thioureido}ethyl)benzoic acid]"
2,10,COc1cccc(OC)c1NC(=S)NCCc1c[nH]c2ccc(O)cc12 [Example 126]
